The subject of test [1] is KB (human oral epidermoid carcinoma). In words: Cytotoxicity against cultured KB cells (SRB). To be noted: Method A, sample dissolved in DMSO; three days incubation. Type of test: cell-based. As for the experimental part: (§1) Cytotoxicity of the crude extracts and purified compounds was determined in a number of cultured human cancer cell lines. Table 1 sets forth the various types of cancer cells evaluated using Method A. The cells were cultured in appropriate media and under standard conditions. To maintain logarithmic growth, the media were changed 24 hours prior to cytotoxic assays. On the day of the assay, the cells were harvested by trypsinization, counted, diluted in media, and added to 96-well plates containing test compounds dissolved in DMSO. The final DMSO concentration was 0.05%.
(§2) In each of Methods A-C, the plates were incubated for three days. Following the incubation period, the cells were fixed and stained with sulforhodamine B (SRB) dye. The bound dye was liberated with Tris base, and the OD515 (optical density at 515 nm) was measured on an ELISA reader. The growth of the betulinic acid-treated cells was determined by the OD515 values, and the growth was compared to the OD515 values of […] control cells of Methods A-C. Dose response studies were performed to generate ED50 values. As used herein, the term OD515 is defined as optical density at 515 nm, and the term ED50 is defined as the concentration of a compound required to reduce cell number by 50%.

The test system of test [2] is U373 (glioma). In words: Cytotoxicity against cultured U373 cells (SRB). The format is cell-based, human. The note with it: Method A, sample dissolved in DMSO; three days incubation. As for the experimental part: as §1, §2
Test [3] has as its system A431 (squamous cells). The test is described as follows: Cytotoxicity against cultured A431 cells (SRB). The format is cell-based, human. To be noted: Method A, sample dissolved in DMSO; three days incubation. As to the method:
as §1, §2

The subject of test [4] is MEL-2 (melanoma). In words: Cytotoxicity against cultured MEL-2 cells (SRB). The format is cell-based, human. To be noted: for IC50: Homo sapiens, MEL2, 72 h, read-out: ED50 MEL-2. As for the experimental part: as §1, §2
In test [5] the test system is COL-2 (colon). In words: Cytotoxicity against cultured COL-2 cells (SRB). Type of test: cell-based, human. To be noted: for IC50: Homo sapiens, Col2, 72 h, read-out: ED50 COL-2. As to the method:
as §1, §2

In test [6] the test system is ZR-75-1 (breast). The test is described as follows: Cytotoxicity against cultured ZR-75-1 cells (SRB). Type of test: cell-based, human. To be noted: for IC50: Homo sapiens, ZR-75-1, 72 h, read-out: ED50 ZR 75-1. As for the experimental part:
as §1, §2

The test system of test [7] is LNCaP (prostate). In words: Cytotoxicity against cultured LNCaP cells (SRB). Type of test: cell-based, human. The note with it: Method A, sample dissolved in DMSO; three days incubation. As to the method: as §1, §2
The test system of test [8] is BC-1 (breast). In words: Cytotoxicity against cultured BC-1 cells (SRB). The note with it: for IC50: Homo sapiens, BC1, 72 h, read-out: ED50 BC-1. Type of test: cell-based, human. As to the method:
as §1
In each of Methods A-C, the plates were incubated for three days. Following the incubation period, the cells were fixed and stained with sulforhodamine B (SRB) dye. The bound dye was liberated with Tris base, and the OD515 (optical density at 515 nm) was measured on an ELISA reader. […] Dose response studies were performed to generate ED50 values. As used herein, the term OD515 is defined as optical density at 515 nm, and the term ED50 is defined as the concentration of a compound required to reduce cell number by 50%.

The test system of test [9] is LU-1 (lung). The test is described as follows: Cytotoxicity against cultured LU-1 cells (SRB). Type of test: cell-based, human. The note with it: Method A, sample dissolved in DMSO, three days incubation; for IC50: Homo sapiens, Lu1, 72 h, read-out: ED50 LU-1. As for the experimental part: as §1, §2
The test system of test [10] is HT-1080 (sarcoma). The test is described as follows: Cytotoxicity against cultured HT-1080 cells (SRB). Type of test: cell-based, human. The note with it: Method A, sample dissolved in DMSO, three days incubation; for IC50: Homo sapiens, HT-1080, 72 h, read-out: ED50 HT-1080. As for the experimental part:
as §1, §2

Test [11] deals with a variety of tumors. The note with it: Phase II trials in Japan; cited from earlier work.
[12] abbreviates: Method A, sample dissolved in DMSO, three days incubation.

Converted amounts (≈) assume the structure as drawn. Like-named read-outs stand apart in the source and are kept apart here.

Turning to `COc1cc([C@@H]2c3cc4c(cc3[C@H](O)[C@H]3COC(=O)[C@H]23)OCO4)cc(OC)c1OC` [Podophyllotoxin], the “ED50 KB” value in test [1] was 0.08 µg/mL (≈ 0.193 µM). In [2], the “ED50 U373” value is 0.004 µg/mL (≈ 0.00965 µM). Moreover, the “ED50 A431” value in test [3] came out at 0.03 µg/mL (≈ 0.0724 µM). The IC50 in test [4] was determined as 0.003 µg/mL (≈ 0.00724 µM); in test [5], 0.005 µg/mL (≈ 0.0121 µM); in [6], 0.4 µg/mL (≈ 0.965 µM); in test [8], 0.03 µg/mL (≈ 0.0724 µM). The “ED50 LNCaP” value in test [7] was determined as 0.04 µg/mL (≈ 0.0965 µM).

Turning to `COC(=O)C[C@](O)(CCCC(C)(C)O)C(=O)O[C@@H]1C(OC)=C[C@]23CCCN2CCc2cc4c(cc2[C@H]13)OCO4` [Homoharringtonine], the IC50 in [9] turned out to be 0.03 µg/mL (≈ 0.055 µM); in test [4] (setting [12]) it was 0.04 µg/mL (≈ 0.0733 µM); in test [5] (setting [12]), 0.1 µg/mL (≈ 0.183 µM); in test [6] (setting [12]) it was 0.06 µg/mL (≈ 0.11 µM); in [8] (setting [12]), 0.03 µg/mL (≈ 0.055 µM); in test [10] it was 0.01 µg/mL (≈ 0.0183 µM). Also, the “ED50 U373” value in [2] was determined as 0.2 µg/mL (≈ 0.367 µM). Moreover, in test [3], the “ED50 A431” value came to 0.02 µg/mL (≈ 0.0367 µM). Moreover, the “ED50 LNCaP” value in test [7] worked out at 0.03 µg/mL (≈ 0.055 µM).

For the compound `Cc1c2ccncc2c(C)c2c1[nH]c1ccccc12` [Ellipticine], the IC50 in test [9] was determined as 0.02 µg/mL (≈ 0.0812 µM); in test [4] (setting [12]), 0.9 µg/mL (≈ 3.65 µM); in test [5] (setting [12]) it was 0.3 µg/mL (≈ 1.22 µM); in test [6] (setting [12]) it was 0.9 µg/mL (≈ 3.65 µM); in test [8] (setting [12]), 0.2 µg/mL (≈ 0.812 µM); in [10], 1.8 µg/mL (≈ 7.31 µM). Besides, the “ED50 KB” value in test [1] turned out to be 0.04 µg/mL (≈ 0.162 µM). The “ED50 U373” value in test [2] was 1.6 µg/mL (≈ 6.5 µM). Moreover, in test [3], the “ED50 A431” value is 0.5 µg/mL (≈ 2.03 µM). The “ED50 LNCaP” value in [7] came to 0.8 µg/mL (≈ 3.25 µM).

As for `CC[C@]1(O)C[C@H]2CN(CCc3c([nH]c4ccccc34)[C@@](C(=O)OC)(c3cc4c(cc3OC)N(C=O)[C@H]3[C@@](O)(C(=O)OC)[C@H](OC(C)=O)[C@]5(CC)C=CCN6CC[C@]43[C@@H]65)C2)C1` [Vincristine], the IC50 turned out to be 0.05 µg/mL (≈ 0.0606 µM) in test [9]; 0.02 µg/mL (≈ 0.0242 µM) in test [4] (setting [12]); 0.02 µg/mL (≈ 0.0242 µM) in [5] (setting [12]); 0.4 µg/mL (≈ 0.485 µM) in test [6] (setting [12]); 0.01 µg/mL (≈ 0.0121 µM) in test [8] (setting [12]); 0.02 µg/mL (≈ 0.0242 µM) in test [10]. For the same compound, the “ED50 U373” value in [2] was found to be 0.06 µg/mL (≈ 0.0727 µM). Further, the “ED50 A431” value in test [3] turned out to be 0.01 µg/mL (≈ 0.0121 µM). Further, in [7], the “ED50 LNCaP” value was 0.1 µg/mL (≈ 0.121 µM).

`CC[C@]1(O)C[C@@H]2CN(CCc3c([nH]c4ccccc34)[C@@](C(=O)OC)(c3cc4c(cc3OC)N(C)[C@H]3[C@@](O)(C(=O)OC)[C@H](OC(C)=O)[C@]5(CC)C=CCN6CC[C@]43[C@@H]65)C2)C1` [Vinblastine]: the IC50 in test [9] stood at 0.02 µg/mL (≈ 0.0247 µM); in test [4] (setting [12]) it was 0.01 µg/mL (≈ 0.0123 µM); in test [5] (setting [12]) it was 0.01 µg/mL (≈ 0.0123 µM); in test [6] (setting [12]) it was 0.3 µg/mL (≈ 0.37 µM); in [8] (setting [12]) it was 0.06 µg/mL (≈ 0.074 µM); in test [10] it was 0.02 µg/mL (≈ 0.0247 µM). Moreover, the “ED50 KB” value in test [1] worked out at 0.04 µg/mL (≈ 0.0493 µM). For the same compound, in [2], the “ED50 U373” value amounted to 1.1 µg/mL (≈ 1.36 µM). For the same compound, the “ED50 A431” value in [3] came out at 0.05 µg/mL (≈ 0.0617 µM). For the same compound, in test [7], the “ED50 LNCaP” value turned out to be 0.1 µg/mL (≈ 0.123 µM).

For the compound `CC(=O)O[C@H]1C(=O)[C@@]2(C)[C@H]([C@H](OC(=O)c3ccccc3)[C@]3(O)C[C@H](OC(=O)[C@H](O)[C@@H](NC(=O)c4ccccc4)c4ccccc4)C(C)=C1C3(C)C)[C@]1(OC(C)=O)CO[C@@H]1C[C@@H]2O` [Taxol, paclitaxel], the “ED50 KB” value in test [1] came out at 0.02 µg/mL (≈ 0.0234 µM). The “ED50 U373” value in test [2] is 0.008 µg/mL (≈ 0.00937 µM). Further, the IC50 in test [4] (setting [12]) amounted to 0.06 µg/mL (≈ 0.0703 µM); in [5] (setting [12]) it was 0.02 µg/mL (≈ 0.0234 µM); in test [6] (setting [12]), 0.02 µg/mL (≈ 0.0234 µM); in test [8] (setting [12]) it was 0.02 µg/mL (≈ 0.0234 µM). In addition, the “ED50 LNCaP” value in test [7] was 0.02 µg/mL (≈ 0.0234 µM).

Mithramycin A: the “ED50 LU-1” value in [9] amounted to 0.2 µg/mL. In addition, in test [1], the “ED50 KB” value is 0.09 µg/mL. Moreover, the “ED50 U373” value in [2] stood at 0.04 µg/mL. Also, the “ED50 A431” value in [3] amounted to 0.09 µg/mL. Besides, the “ED50 MEL-2” value in [4] (setting [12]) amounted to 1.2 µg/mL. For the same compound, the “ED50 COL-2” value in test [5] (setting [12]) came out at 0.06 µg/mL. In test [6] (setting [12]), the “ED50 ZR 75-1” value turned out to be 0.2 µg/mL. The “ED50 LNCaP” value in [7] amounted to 0.05 µg/mL. Besides, in [8] (setting [12]), the “ED50 BC-1” value is 0.3 µg/mL. For the same compound, the “ED50 HT-1080” value in test [10] is 1.5 µg/mL.

As to `CC[C@@]1(O)C(=O)OCc2c1cc1n(c2=O)Cc2cc3ccccc3nc2-1` [Camptothecin], the IC50 worked out at 0.02 µg/mL (≈ 0.0574 µM) in test [4] (setting [12]); 0.005 µg/mL (≈ 0.0144 µM) in [5] (setting [12]); 0.001 µg/mL (≈ 0.00287 µM) in test [6] (setting [12]); 0.07 µg/mL (≈ 0.201 µM) in test [8] (setting [12]); 0.01 µg/mL (≈ 0.0287 µM) in [10]. The “ED50 LNCaP” value in [7] stood at 0.006 µg/mL (≈ 0.0172 µM).

With `CCc1c2c(nc3ccc(OC(=O)N4CCC(N5CCCCC5)CC4)cc13)-c1cc3c(c(=O)n1C2)COC(=O)[C@]3(O)CC` [irinotican], in [11], the “response rate, lymphoma” value was 0% and the “response rate, small cell lung” value was 50%.

(Values after patent publication US6569842B2 (Board of Trustees of the University of Illinois, The, priority 2000, dated 2003).)
